Results as given in the supplement of paper PMC10307832.

Key:
Experiment in all cases: relative viability (nuclei count vs DMSO), 5 days (fraction); higher = more cells survive
Trametinib + Palbociclib = compound: CC(=O)Nc1cccc(-n2c(=O)n(C3CC3)c(=O)c3c(Nc4ccc(I)cc4F)n(C)c(=O)c(C)c32)c1 [Trametinib] + CC(=O)c1c(C)c2cnc(Nc3ccc(N4CCNCC4)cn3)nc2n(C2CCCC2)c1=O [Palbociclib] (partner 0.5 µM)
Method in brief: (§1)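 After 5 days of treatment, lung cancer cells in 1536-well plates were fixed and stained in a single step (final 0.05% Triton X-100, 1% formaldehyde, 1 ug/ml Hoechst) and their nuclei counted on 4× images. Treatment had been applied by pin tool the day after seeding as one drug alone or as a fixed anchor-drug dose with five library-drug doses (not always all listed) in √10 steps. Relative viability is the nuclei count of treated wells divided by that of vehicle wells, and values are medians of duplicate plates.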

Trametinib + Luminespib = compound: CC(=O)Nc1cccc(-n2c(=O)n(C3CC3)c(=O)c3c(Nc4ccc(I)cc4F)n(C)c(=O)c(C)c32)c1 [Trametinib] + CCNC(=O)c1noc(-c2cc(C(C)C)c(O)cc2O)c1-c1ccc(CN2CCOCC2)cc1 [Luminespib] (partner 0.01 µM)
Method in brief: as §1

Trametinib + Olaparib = compound: CC(=O)Nc1cccc(-n2c(=O)n(C3CC3)c(=O)c3c(Nc4ccc(I)cc4F)n(C)c(=O)c(C)c32)c1 [Trametinib] + O=C(c1cc(Cc2n[nH]c(=O)c3ccccc23)ccc1F)N1CCN(C(=O)C2CC2)CC1 [Olaparib] (partner 8 µM)
Method in brief: as §1

[1] = compound: CN1C=C(C2=CC=CC=C21)/C=C\3/C4=C(C=CC=N4)NC3=O + Nc1ncn([C@H]2C[C@H](O)[C@@H](CO)O2)c(=O)n1 [Decitabine] (partner 2 µM)
Method in brief: as §1

Row | Cell Line | relative viability (Trametinib + Palbociclib; first compound 0.0025 µM) | relative viability (Trametinib + Palbociclib; first compound 0.007906 µM) | relative viability (Trametinib + Palbociclib; first compound 0.025 µM) | relative viability (Trametinib + Palbociclib; first compound 0.07906 µM) | relative viability (Trametinib + Palbociclib; first compound 0.25 µM) | relative viability (Trametinib + Luminespib; first compound 0.0025 µM) | relative viability (Trametinib + Luminespib; first compound 0.007906 µM) | relative viability (Trametinib + Luminespib; first compound 0.025 µM) | relative viability (Trametinib + Luminespib; first compound 0.07906 µM) | relative viability (Trametinib + Luminespib; first compound 0.25 µM) | relative viability (Trametinib + Olaparib; first compound 0.0025 µM) | relative viability (Trametinib + Olaparib; first compound 0.007906 µM) | relative viability (Trametinib + Olaparib; first compound 0.025 µM) | relative viability (Trametinib + Olaparib; first compound 0.07906 µM) | relative viability (Trametinib + Olaparib; first compound 0.25 µM) | relative viability ([1]; first compound 0.02 µM) | relative viability ([1]; first compound 0.06325 µM) | relative viability ([1]; first compound 0.2 µM) | relative viability ([1]; first compound 0.6325 µM) | relative viability ([1]; first compound 2 µM)
1 | NCI-H2009 | 0.138 | 0.135 | 0.109 | 0.135 | 0.125 | 1.03 | 0.623 | 0.406 | 0.26 | 0.315 | 0.693 | 0.768 | 0.508 | 0.338 | 0.308 | 0.303 | 0.355 | 0.352 | 0.382 | 0.417
2 | LC-2-ad | 0.5 | 0.452 | 0.461 | 0.381 | 0.404 | 0.975 | 0.951 | 1 | 0.71 | 0.447 | 0.683 | 0.663 | 0.706 | 0.695 | 0.604 | 0.772 | 0.826 | 0.783 | 0.861 | 0.817
3 | NCI-H1437 | 0.319 | 0.226 | 0.204 | 0.196 | 0.211 | 1.12 | 0.923 | 0.709 | 0.627 | 0.602 | 0.601 | 0.518 | 0.446 | 0.422 | 0.443 | 0.593 | 0.591 | 0.527 | 0.664 | 0.668
4 | NCI-H3122 | 0.189 | 0.158 | 0.125 | 0.112 | 0.101 | 0.103 | 0.0926 | 0.0926 | 0.0939 | 0.0775 | 0.558 | 0.532 | 0.43 | 0.263 | 0.237 | 0.407 | 0.445 | 0.38 | 0.496 | 0.507
5 | NCI-H727 | 0.577 | 0.513 | 0.41 | 0.382 | 0.384 | 0.297 | 0.314 | 0.291 | 0.244 | 0.225 | 0.714 | 0.617 | 0.565 | 0.363 | 0.398 | 0.935 | 0.886 | 0.669 | 0.979 | 0.829
6 | NCI-H1734 | 0.337 | 0.353 | – | 0.292 | 0.241 | 0.208 | 0.169 | 0.173 | 0.149 | 0.15 | 0.632 | 0.578 | – | 0.59 | 0.431 | 0.482 | 0.535 | – | 0.515 | 0.499
7 | HCC-15 | 0.704 | 0.427 | 0.307 | 0.232 | 0.222 | 0.313 | 0.186 | 0.157 | 0.165 | 0.192 | 0.766 | 0.39 | 0.447 | 0.369 | 0.3 | 0.562 | 0.566 | 0.656 | 0.579 | 0.814
8 | NCI-H2405 | 0.527 | 0.58 | 0.419 | – | 0.281 | 0.529 | 0.591 | 0.395 | 0.338 | 0.306 | 0.859 | 0.799 | 0.83 | – | 0.53 | 0.739 | 0.676 | 0.653 | 0.725 | 0.734
9 | NCI-H1993 | 0.553 | 0.526 | 0.548 | 0.61 | 0.448 | 0.74 | 0.693 | 0.749 | 0.528 | 0.578 | 0.961 | 0.834 | 0.789 | 0.542 | 0.537 | 0.532 | 0.589 | 1.3 | 0.578 | 0.529
10 | NCI-H1650 | 0.34 | 0.38 | 0.34 | 0.357 | 0.158 | 0.209 | 0.2 | 0.176 | 0.174 | 0.211 | 0.852 | 0.735 | 0.638 | 0.568 | 0.332 | 0.419 | 0.427 | 0.378 | 0.385 | 0.45
11 | NCI-H460 | 0.152 | 0.0859 | 0.0921 | 0.018 | 0.0172 | 0.0314 | 0.0296 | 0.0277 | 0.0263 | 0.0269 | 0.43 | 0.265 | 0.313 | 0.217 | 0.0898 | 0.487 | 0.44 | 0.414 | 0.445 | 0.483
12 | NCI-H1651 | 0.489 | 0.501 | 0.51 | 0.459 | 0.432 | 0.866 | 0.736 | 0.749 | 0.791 | 0.654 | 0.197 | 0.178 | 0.182 | 0.179 | 0.161 | 0.649 | 0.613 | 0.5 | 0.643 | 0.578
13 | NCI-H1975 | 0.543 | 0.349 | 0.506 | 0.19 | 0.129 | 0.207 | 0.177 | 0.155 | 0.183 | 0.171 | 0.816 | 0.633 | 0.566 | 0.376 | 0.322 | 0.396 | 0.277 | 0.356 | 0.363 | 0.347
